Test results published in patent US20180369203A1, “METHODS OF TREATING CANCER BY ADMINISTERING A MEK INHIBITOR IN COMBINATION WITH A PROTEASOME INHIBITOR” (The Jackson Laboratory, priority 2015, published 2018).

Tested on: Aβ1-42 peptides
Experiment: In vitro amyloid seeding of Aβ1-42 with lysates of treated A2058 cells (ThT binding, TEM)
Assay type: cell-based, human
Protocol: FIGS. 5A-Y show MEK and proteasome inhibition provoke protein aggregation and amyloidogenesis. (A-B) WM115 cells treated with 20 nM AZD6244, 100 nM Bortezomib, or both for 24 hr were stained with Lys48-specific ubiquitin antibodies. Arrowheads mark ubiquitin-positive aggregates. Scale bar: 10 μm. Amounts of aggregates per cell were quantitated using ImageJ (median, n≥100, ANOVA). (C-F) Following transfection with polyQ79 plasmids alone or with both polyQ79 and HSF1^S326D plasmids for one day, HEK293T cells were treated with inhibitors as described in (A-B). Cells were either analyzed for aggregate size or stained with 10 μM ThT. (G) Treated tumor cell lines were stained with 10 μM ThT. Geometric means were used to calculate fold changes in ThT fluorescence intensity and the log 2(FC) values were presented as a heat map. […] Following treatments, AOs were quantitated by ELISA using A11 antibodies (mean±SD, n=3, ANOVA). (I) Intrinsic AOs were detected in human tumor cell lines (mean±SD, n=3, ANOVA). […] Amyloids were quantitated by ELISA (mean±SD, n=3, Student's t-test). […] AF formation was monitored by ThT binding (mean±SD, n=3, ANOVA). […] Amyloids were quantitated (mean±SD, n=3, Student's t-test). […] Viable cells were quantitated by CellTiter® blue (mean±SD, n=6, Student's t-test). […] Viable cells were quantitated (mean±SD, n=6, ANOVA). […]
This figure is related to FIG. 5. […] (C) Quantitation of protein aggregate size. […]

## CC(C)C[C@H](NC(=O)[C@H](Cc1ccccc1)NC(=O)c1cnccn1)B(O)O [Bortezomib, bortezomib]
20 μM Aβ1-42, ThT binding
  amyloid seeding efficacy of cell lysates: augmented
37° C., 2 days
  fibril morphology after seeding (transmission electron microscopy): mature fibrils
